The subject of the assay is A2780 cells. As to the kind of experiment: In-vitro cell proliferation assay (SRB, 72 hours). The format is cell-based. To be noted: Homo sapiens, A2780, 72 h, A2780 cells, 72 hours, SRB; read-out: Cell Proliferation (IC50).
Method: Assay 2: In-Vitro Cell Proliferation Assay
Assay Method. […] The compounds were then further diluted to 10× final concentration in culture media, whereupon 20 μL of each dilution was added to the plated cells with controls (e.g. DMSO and blank) to make a final volume of 200 μL. The final DMSO concentration in each well was 0.1%. The plates were then incubated for 72 hours at 37° C. in a 5% CO2 incubator. The number of viable cells was then assessed using sulforhodamine B (SRB) assay. Cells were fixed at 4° C. for 1 hour with the addition of 50 μL 30% trichloroacetic acid (TCA) to make a final concentration of 6% TCA. The plates were washed four times with H2O and allowed to dry for at least 1 hour, whereupon 100 μL of a 4% SRB in 1% acetic acid solution was added to each well and incubated at room temperature for at least 30 min. The plates were then washed three times with 1% acetic acid, dried, and treated with 100 μL of 10 mM Tris-Base solution. The plates were then read in a microplate reader at an absorbance of 570 nm. Background was generated on a separate plate with media only.
Determination of IC50 Values. First, the signals from the background plate were averaged, then the background was subtracted from the test plates.
For `Cc1cc(C(=O)N2CCC3(CC2)CC3CNC(=O)c2cc3ccncc3o2)nn1C` (stereo not shown) [Example 115, N-[[6-(1,5-dimethylpyrazole-3-carbonyl)-6-azaspiro[2.5]octan-2-yl]methyl]furo[2,3-c]pyridine-2-carboxamide], the IC50 is 37.6 nM.
With `O=C(NCC1CC12CCN(C(=O)CCN1CCOCC1)CC2)c1cc2ccncc2o1` (stereo not shown) [Example 65, N-[[6-(3-morpholinopropanoyl)-6-azaspiro[2.5]octan-2-yl]methyl]furo[2,3-c]pyridine-2-carboxamide], the IC50 amounted to 931 nM.
With `N#Cc1ccc(CC(=O)N2CCC3(CC2)CC3CNC(=O)c2cc3cnccc3[nH]2)cc1` (stereo not shown) [Example 216, N-[[6-[2-(4-cyanophenyl)acetyl]-6-azaspiro[2.5]octan-2-yl]methyl]-1H-pyrrolo[3,2-c]pyridine-2-carboxamide] the figure was 1340 nM; with `O=C(NCC1CC12CCN(C(=O)c1ccc3[nH]cnc3c1)CC2)c1cc2ccncc2o1` (stereo not shown) [Example 241, N-[[6-(1H-benzimidazole-5-carbonyl)-6-azaspiro[2.5]octan-2-yl]methyl]furo[2,3-c]pyridine-2-carboxamide], 70.2 nM; with `O=C(NCC1CC12CCN(C(=O)c1ccccn1)CC2)c1cc2ccncc2o1` (stereo not shown) [Example 98, N-[[6-(pyridine-2-carbonyl)-6-azaspiro[2.5]octan-2-yl]methyl]furo[2,3-c]pyridine-2-carboxamide], 2000 nM.
With `Cc1nc2ccccn2c1C(=O)N1CCC2(CC1)CC2CNC(=O)c1cc2ccncc2o1` (stereo not shown) [Example 309, N-[[6-(2-methylimidazo[1,2-a]pyridine-3-carbonyl)-6-azaspiro[2.5]octan-2-yl]methyl]furo[2,3-c]pyridine-2-carboxamide] the figure was 24.7 nM; with `CC(=O)N1CC(C(=O)N2CCC3(CC2)CC3CNC(=O)c2cc3ccncc3o2)C1` (stereo not shown) [Example 145, N-[[6-(1-acetylazetidine-3-carbonyl)-6-azaspiro[2.5]octan-2-yl]methyl]furo[2,3-c]pyridine-2-carboxamide], 2000 nM; with `CN1CCN(Cc2ccc(C(=O)N3CCC4(CC3)CC4CNC(=O)c3cc4cnccc4[nH]3)cc2)CC1` (stereo not shown) [Example 343, N-[[6-[4-[(4-methylpiperazin-1-yl)methyl]benzoyl]-6-azaspiro[2.5]octan-2-yl]methyl]-1H-pyrrolo[3,2-c]pyridine-2-carboxamide], 42.5 nM.
`CC(C)CC(=O)N1CCC2(CC1)CC2CNC(=O)c1cc2ccncc2o1` (stereo not shown) [Example 273, N-[[6-(3-methylbutanoyl)-6-azaspiro[2.5]octan-2-yl]methyl]furo[2,3-c]pyridine-2-carboxamide]: the IC50 turned out to be 207 nM.
Turning to `N#Cc1cccc(CC(=O)N2CCC3(CC2)CC3CNC(=O)c2cc3cnccc3[nH]2)c1` (stereo not shown) [Example 206, N-[[6-[2-(3-cyanophenyl)acetyl]-6-azaspiro[2.5]octan-2-yl]methyl]-1H-pyrrolo[3,2-c]pyridine-2-carboxamide], the IC50 came to 2000 nM.
With `CC(C)(O)COCC(=O)N1CCC2(CC1)CC2CNC(=O)c1cc2cnccc2[nH]1` (stereo not shown) [Example 387, N-[[6-[2-(2-hydroxy-2-methyl-propoxy)acetyl]-6-azaspiro[2.5]octan-2-yl]methyl]-1H-pyrrolo[3,2-c]pyridine-2-carboxamide] the figure was 535 nM; with `O=C(Cc1ccccn1)N1CCC2(CC1)CC2CNC(=O)N1Cc2ccncc2C1` (stereo not shown) [Example 176, N-[[6-[2-(2-pyridyl)acetyl]-6-azaspiro[2.5]octan-2-yl]methyl] 1,3-dihydropyrrolo[3,4-c]pyridine-2-carboxamide], 34.1 nM; with `COc1cccc(CNC(=O)N2CCC3(CC2)CC3CNC(=O)c2cc3ccncc3o2)c1` (stereo not shown) [Example 165, N-[[6-[(3-methoxyphenyl)methylcarbamoyl]-6-azaspiro[2.5]octan-2-yl]methyl]furo[2,3-c]pyridine-2-carboxamide], 2000 nM.

Values taken from patent publication US10730889B2, “Amido spirocyclic amide and sulfonamide derivatives” (Forma TM, LLC, priority 2012, dated 2020).
